Source: US20070026090A1, “Treatment and prevention of inflammatory disease and mitochondrial dysfunction with high dose selenium” (priority 2003, published 2007)

Columns and labels:
UCP2 = UCP2 transcription and expression (RTPCR, Western blot); assay type: cell-based, murine
Method: (§1) Cell culture: Murine J774.2 macrophages (kindly provided by Prof. Dov Zipori from the Weizmann Institute of Science) were grown in RPMI medium supplemented with 10% (w/v) fetal calf serum, penicillin (100 U/ml), streptomycin (100 μg/ml) and 1× glutamine at 37° C. in a humidified atmosphere consisting of 95% air and 5% CO2. Experiments were performed on cells at 60% confluence.
Western blots (Sp1, MnSOD, UCP2): Cells were grown in six-well tissue culture plates, treated with selenium for 72 h and activated with LPS and IFN-γ for 24 h. The wells were washed with PBS, scraped and centrifuged
(5 min. 2000 RPM), and lysed by addition of boiling hot lysis buffer (1% SDS, 1 mM sodium ortho-vanadate, 10 mM Tris pH 7.4) to the pellets. Protein content was measured (BIO RAD protein assay kit) and equalized. Sample buffer (containg SDS) was added and the samples were boiled. The samples were subjected to SDS-PAGE followed by western blot analysis. Separated proteins were transferred electrophoretically from the gel to a nitrocellulose membrane (Amersham International plc, Buckinghamshire, ENGLAND). The membrane was blocked in TBS (0.15 M NaCl/10 mM Tris/HCl, pH7.4) containing 5% (v/v) skimmed milk (Blotto), then incubated over night with primary antibodies at RT (diluted 1/2000 in blotto). After being washed six times in TBST [TBS containing 0.05% (v/v) Tween 20], the membrane was incubated for 2 h at room temperature with secondary antibody (diluted 1/5000 in blotto). Immunoreactive bands were detected with ECL western blotting detection reagents (Amersham Pharmacia Biotech, Buckingammshire England) and developed on film (Fuji super RX, Dusseldorf, Germany). Primary antibodies for Sp1 and MnSOD were from BD Transduction Laboratories (Becton Dickenson and Co., San Jose, Calif. USA) and for UCP2 from Alpha Diagnostics LTD (Warszaw, Poland). Secondary antibodies were from Jackson ImmunoResearch (Jackson Labs, Bar Harbor, Maine, USA).
Reverse transcriptase-PCR (RTPCR): Total RNA was prepared and isolated by the Tri-Reagent method according to the manufacturer's protocol (Sigma, St. Louis Mo., USA). Total RNA (1 μg) was converted into cDNA using Reverse-iT first strand synthesis kit (Abgene, UK). Amplification of MnSOD and UCP2 sequences was performed by incubating 10 ng equivalents of DNA with the following oligonucleotide primers:
Left (sense), 5′-[…]-3′ (SEQ ID NO:7) corresponding to nucleotides 372 to 392 of mouse mRNA (GenBank Accession No. NM 011671).
Right (antisense) 5′[…]-3′ (SEQ ID NO: 8) corresponding to nucleotides 826 to 846 of mouse mRNA (GenBank Accession No. NM 011671). The expected PCR product was 474 bp. Actual PCR product was approximately 474 bp, measured on 1.25% agarose gel in TAE containing ethidium bromide.
PCR was performed with 28 cycles (25 cycles for GAPDH) of 30 seconds at 96° C., 30 seconds at 58° C. and 1 min at 72° C. RTPCR products were analyzed on 1.3% (w/v) agarose gels.

Sp1 = Sp1 binding activity of nuclear extracts of treated macrophages (EMSA); assay type: cell-based, murine
Method: as §1
Nuclear extracts: Nuclear Extracts were prepared using a slight modification of the method of Dignam et al (23). Treated cells were washed with cold PBS, scraped and centrifuged. Hypotonic buffer (1 ml, 20 mM HEPES pH 7.0, 10 mM KCl, 1 mM mGCl2, 0.5 mM DTT, 0.1% Triton X-100, 20% glycerol, 2 mM PMSP, 1 mg/ml Aprotonin and Leupeptin) was added to the cell pellets, the pellets were disrupted by pipetting, and centrifuged 3000 RPM for 5 min. The pellets were re-suspended in 100 μl cold extraction buffer (20 mM HEPES pH 7.0, 10 mM KCl, 1 mM mGCl2, 0.5 mM DTT, 0.1% Triton X-100, 20% glycerol, 2 mM PMSF, 1 mg/ml Aprotonin and Leupeptin, 420 mM NaCl). The samples were rotated for 20 min at 4° C., centrifuged 15,000 RPM for 10 min, and supernatants collected. Protein content was measured using Bradford reagent. Samples were stored frozen at minus 70° C.
Electromobility shift assay (EMSA)—Gel shift assays were performed according to the gel shift assay protocol from Promega Corp. (San Luis Obispo, Calif.). A 22-mer double-stranded NF-κB consensus oligonucleotide 5′-[…]-3′ (SEQ ID NO:3), and Sp1 consensus oligonucleotide 5′-[…]-3(SEQ ID NO:4), were labeled with 32P. For each reaction, 2 μg of nuclear extract were incubated with 2 μl of 5× binding buffer for 5 min., 1 μl of the ^32P-labeled oligonucleotide was added at room temperature for 20 min., the samples were prepared by adding 1 μl of dye free loading buffer, and separated using 6% non-denaturing acrylamide gel electrophoresis. The gel was dried and exposed to a phosphoimaging screen for 18 hours and then visualized with a phosphoimager. For specificity, 1 μl of unlabeled consensus oligonucleotide was used to compete with the labeled probe.

[Se] [selenium]
UCP2 transcripts and protein (UCP2; 24 or 72 hours, concentration dependent, to a lesser extent than MnSOD): reduced the abundance
UCP2 expression, activated macrophages (UCP2; exposure (72 hours) prior to activation, concentration dependent (FIG. 11)): decreased
lowest concentration with dramatic effect on Sp-1 binding, activated macrophages (Sp1; 72 hours, then 6 hours LPS + INFγ, range 0.5-5 μM (FIG. 13A lower panel)): 5 µM
lowest concentration with dramatic effect on Sp-1 binding, resting macrophages (Sp1; 72 hours, unactivated (FIG. 13A upper panel)): 5 µM
binding of Sp-1, activated macrophages (Sp1; concentration-dependent (FIG. 13A)): dramatically reduced
